Data reported in paper PMC4001449, “Thienoquinolines as Novel Disruptors of the PKCε/RACK2 Protein–Protein Interaction” (Journal of Medicinal Chemistry, 2014).

Experiments:
[1] = target: RSK2 (Homo sapiens, UniProt P51812); assay: Kinase profiling (Dundee), RSK2; assay type: biochemical; conditions: 25 μM solution
[2] = target: PIM3 (Homo sapiens, UniProt Q86V86); assay: Kinase profiling (Dundee), PIM3; assay type: biochemical; conditions: 25 μM solution
[3] = tested on: PKCε; assay: PKCε translocation, cell fractionation and Western blotting in PC-3 cells; assay type: cell-based, human; conditions: Figure 3
Experimental: For PKCε translocation PC-3 cells were starved for 16 h, treated with 8 for 30 min, stimulated with 50 nM TPA for 5 min, lysed, and fractionated with a CNMCS/CNM compartmental protein extraction kit (BioChain Institute, Newark, CA). Western blotting was performed by a standard procedure as described by Garczarczyk et al.[27],[40] Cytosolic and membrane fractions were loaded onto SDS gels and transferred to an Immobilon membrane (Millipore, Billerica, MA). The membranes were incubated with rabbit polyclonal IgG antibodies for detection of PKCε (Santa Cruz Biotechnology; dilution 1:2000), for PKCε phosphoSer^729 (Millipore; dilution 1:1000), for PKCδ (Santa Cruz Biotechnology; dilution 1:1000), and for MARCKS phosphoSer152/156 (Cell Signaling Technology, Danvers, MA; dilution 1:1000). For the loading control tubulin (Santa Cruz Biotechnology; dilution 1:1000), and as marker for the membrane fraction, an IGFI-βR rabbit polyclonal IgG antibody (Santa Cruz; dilution 1:1000) and, as secondary antibodies, peroxidase-conjugated AffiniPure goat anti-rabbit IgG (Jackson ImmunoResearch Laboratories, West Grove, PA; dilution 1:20000) were used. GAPDH (Chemicon, Millipore, Billerica, MA; dilution 1:10000) was used as loading control for the cytosolic fraction. […]

[4] = tested on: HeLa cells with doxycycline-inducible PKCε; assay: Invasion of HeLa cells through a reconstituted basement membrane matrix; assay type: cell-based; conditions: PKCε induced with doxycycline, Figure 6C
Experimental: (§1) Figure 6 Compound 8 inhibits MARCKS phosphorylation, cell proliferation, and invasion following treatment with 8. (A) HeLa cells were starved for 16 h in medium without fetal calf serum. Subsequently, they were treated with 50 μM solution of compound 8 for 30 min and 100 nM TPA for the last 10 min. An amount of 150 μg of protein from lysed cells was loaded onto SDS 8–16% gels. Tubulin was used as loading control. Below a representative blot, a bar graph corresponding to quantitative scans of three independent experiments (±SD) is shown. (B) Cell proliferation following treatment of HeLa and PC-3 cells with 8. The mean values (±SD) of three independent experiments, in which three samples were taken within each experiment, are shown. (C) Invasion of cells through a membrane. Cell invasion was determined as described in Experimental Section. In HeLa cells with a doxycycline-inducible PKCε the expression of PKCε was induced with doxycycline (control + Dox). The mean of three experiments (±SD) is shown: (∗) p = 0.03. The data are normalized to the control (100%). Therefore, the standard deviation for the control is 0.
For cell migration and motility, a scratch migration assay described by Cha et al.[41] was employed. […] Invasion of HeLa cells through a reconstituted basement membrane matrix was determined with a cell invasion assay kit from Chemicon (no. ECM550) as described by the manufacturer.

[5] = target: T1, NUAK1 (Homo sapiens, UniProt O60285); assay: Kinase profiling (Dundee), NUAK1; assay type: biochemical; conditions: 25 μM solution
T1 sequence (O60285 1-661): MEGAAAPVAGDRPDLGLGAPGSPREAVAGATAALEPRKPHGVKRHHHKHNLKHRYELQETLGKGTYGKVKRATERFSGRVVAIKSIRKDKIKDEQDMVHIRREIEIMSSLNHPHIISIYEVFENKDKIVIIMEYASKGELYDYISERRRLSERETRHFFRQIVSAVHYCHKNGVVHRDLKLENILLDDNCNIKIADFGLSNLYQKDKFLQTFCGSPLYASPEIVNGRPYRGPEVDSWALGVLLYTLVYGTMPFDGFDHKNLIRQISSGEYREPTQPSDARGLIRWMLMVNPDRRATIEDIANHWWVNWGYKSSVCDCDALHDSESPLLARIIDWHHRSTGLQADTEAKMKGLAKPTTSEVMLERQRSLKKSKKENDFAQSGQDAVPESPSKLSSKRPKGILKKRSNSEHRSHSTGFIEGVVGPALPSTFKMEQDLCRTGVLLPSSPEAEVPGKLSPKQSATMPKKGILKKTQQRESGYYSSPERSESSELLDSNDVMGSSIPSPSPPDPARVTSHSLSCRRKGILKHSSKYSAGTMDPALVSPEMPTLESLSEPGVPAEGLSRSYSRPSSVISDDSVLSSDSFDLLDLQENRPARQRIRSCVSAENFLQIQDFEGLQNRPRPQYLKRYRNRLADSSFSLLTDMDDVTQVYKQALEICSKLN

[6] = tested on: MARCKS phosphorylation; assay: MARCKS phosphorylation in HeLa cells (Western blot); assay type: cell-based; conditions: 50 μM for 30 min, 100 nM TPA last 10 min
Experimental: as §1
For PKCε translocation PC-3 cells were starved for 16 h, treated with 8 for 30 min, stimulated with 50 nM TPA for 5 min, lysed, and fractionated with a CNMCS/CNM compartmental protein extraction kit (BioChain Institute, Newark, CA). […]

[7] = tested on: PC-3 prostate adenocarcinoma cells; assay: Cell proliferation (SRB assay), PC-3; assay type: cell-based, human; conditions: PC-3, 50 μM, 72 h
Experimental: HeLa cells containing a tetracycline/doxycycline-inducible constitutively active PKCε were described previously.[26] A PathDetect HeLa HLR cell line was obtained from Agilent, Technologies, Wokingham, U.K. PC-3 prostate adenocarcinoma cells were obtained from Dr. Helmut Klocker, Department of Urology, Innsbruck Medical University. For cell proliferation HeLa HLR and PC-3 cells were seeded at ∼10 000 cells per well in 96-well plates. After 4 h various concentrations of 8 were added and left for 72 h. Cell proliferation was determined by the SRB assay.[35]

Sequence of RSK2 (P51812 whole entry, species assumed): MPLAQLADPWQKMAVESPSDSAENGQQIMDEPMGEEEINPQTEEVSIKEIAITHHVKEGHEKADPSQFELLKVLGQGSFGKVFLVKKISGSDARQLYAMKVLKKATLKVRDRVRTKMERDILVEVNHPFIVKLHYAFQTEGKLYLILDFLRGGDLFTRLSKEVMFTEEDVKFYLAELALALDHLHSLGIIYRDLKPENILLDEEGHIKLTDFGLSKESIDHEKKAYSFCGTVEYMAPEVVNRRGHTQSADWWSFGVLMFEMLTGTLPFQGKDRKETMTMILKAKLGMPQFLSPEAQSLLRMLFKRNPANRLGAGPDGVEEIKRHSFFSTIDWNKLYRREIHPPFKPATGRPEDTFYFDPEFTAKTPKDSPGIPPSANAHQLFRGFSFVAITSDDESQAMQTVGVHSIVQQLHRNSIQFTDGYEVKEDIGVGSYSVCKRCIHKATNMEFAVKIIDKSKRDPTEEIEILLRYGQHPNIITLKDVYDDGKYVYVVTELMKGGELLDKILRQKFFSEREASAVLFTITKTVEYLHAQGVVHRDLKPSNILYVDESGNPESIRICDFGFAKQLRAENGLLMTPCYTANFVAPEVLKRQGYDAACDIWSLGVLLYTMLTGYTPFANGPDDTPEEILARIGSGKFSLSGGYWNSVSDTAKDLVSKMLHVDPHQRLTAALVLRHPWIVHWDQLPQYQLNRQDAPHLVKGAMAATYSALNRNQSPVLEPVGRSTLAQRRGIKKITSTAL

Structure (SMILES): CC(=O)c1cccc(NC(=O)c2sc3nc4cc5c(cc4cc3c2N)OCCO5)c1 [Compound 8, N-(3-acetylphenyl)-9-amino-2,3-dihydro-1,4-dioxino[2,3-g]thieno[2,3-b]quinoline-8-carboxamide]
- RSK2 activity, % of control [1]: 27 % of control
- PIM3 activity, % of control [2]: 46 % of control
- Ser729-phosphorylated PKCε at the membrane ([3]; TPA): did not reduce
- Translocation of activated and phosphorylated PKCε to the membrane fraction ([3]; TPA-induced): partially inhibits
- Invasion of cells through an extracellular matrix [4]: inhibited
- NUAK1 activity, % of control [5]: 49 % of control
- Phosphorylation of MARCKS [6]: inhibited
- Inhibition of cell proliferation [7]: did not show any inhibition
